Assay results published in PubChem BioAssay (NCI).
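Assay format: 96-well plates, 48-hour exposure. GI50: concentration for 50% inhibition of growth. TGI denotes the concentration required for complete inhibition of growth.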

What was measured:
Experiment in all cases: DTP human tumour cell line panel, 48 h
786-0 renal = test system: 786-0 renal
A498 renal = test system: A498 renal
A549 NSCLC = test system: A549 NSCLC
ACHN renal = test system: ACHN renal
BT-549 breast = test system: BT-549 breast
CAKI-1 renal = test system: CAKI-1 renal
CCRF-CEM leukemia = test system: CCRF-CEM leukemia
COLO 205 colon = test system: COLO 205 colon
DU-145 prostate = test system: DU-145 prostate
EKVX NSCLC = test system: EKVX NSCLC
HCC-2998 colon = test system: HCC-2998 colon
HCT-116 colon = test system: HCT-116 colon
HCT-15 colon = test system: HCT-15 colon
HL-60(TB) leukemia = test system: HL-60(TB) leukemia
HOP-62 NSCLC = test system: HOP-62 NSCLC
HOP-92 NSCLC = test system: HOP-92 NSCLC
HS 578T breast = test system: HS 578T breast
HT29 colon = test system: HT29 colon
IGROV1 ovarian = test system: IGROV1 ovarian
K-562 leukemia = test system: K-562 leukemia
KM12 colon = test system: KM12 colon
LOX IMVI melanoma = test system: LOX IMVI melanoma
M14 melanoma = test system: M14 melanoma
MALME-3M melanoma = test system: MALME-3M melanoma
MCF7 breast = test system: MCF7 breast
MDA-MB-231 breast = test system: MDA-MB-231 breast
MDA-MB-435 = test system: MDA-MB-435
MOLT-4 leukemia = test system: MOLT-4 leukemia
NCI-H226 lung = test system: NCI-H226 lung
NCI-H23 lung = test system: NCI-H23 lung
NCI-H460 lung = test system: NCI-H460 lung
NCI-H522 lung = test system: NCI-H522 lung
NCI/ADR-RES ovarian = test system: NCI/ADR-RES ovarian
OVCAR-3 ovarian = test system: OVCAR-3 ovarian
OVCAR-4 ovarian = test system: OVCAR-4 ovarian
OVCAR-5 ovarian = test system: OVCAR-5 ovarian
OVCAR-8 ovarian = test system: OVCAR-8 ovarian
PC-3 prostate = test system: PC-3 prostate
RPMI-8226 leukemia = test system: RPMI-8226 leukemia
RXF 393 renal = test system: RXF 393 renal
SF-268 CNS = test system: SF-268 CNS
SF-295 CNS = test system: SF-295 CNS
SF-539 CNS = test system: SF-539 CNS
SK-MEL-2 melanoma = test system: SK-MEL-2 melanoma
SK-MEL-28 melanoma = test system: SK-MEL-28 melanoma
SK-MEL-5 melanoma = test system: SK-MEL-5 melanoma
SK-OV-3 ovarian = test system: SK-OV-3 ovarian
SN12C renal = test system: SN12C renal
SNB-19 CNS = test system: SNB-19 CNS
SNB-75 CNS = test system: SNB-75 CNS
SR leukemia = test system: SR leukemia
SW-620 colon = test system: SW-620 colon
T-47D breast = test system: T-47D breast
TK-10 renal = test system: TK-10 renal
U251 CNS = test system: U251 CNS
UACC-257 melanoma = test system: UACC-257 melanoma
UACC-62 melanoma = test system: UACC-62 melanoma
UO-31 renal = test system: UO-31 renal

## CN1CCN(Cc2ccc(NC(=O)c3cncc(C#Cc4cnc5cccnn45)c3)cc2C(F)(F)F)CC1
786-0 renal
  GI50: 1140 nM
  TGI: 2730 nM
A498 renal
  GI50: 907 nM
  TGI: 1860 nM
A549 NSCLC
  GI50: 1570 nM
  TGI: 5.05 µM
ACHN renal
  GI50: 1430 nM
  TGI: 4.9 µM
BT-549 breast
  GI50: 1740 nM
  TGI: 5.65 µM
CAKI-1 renal
  GI50: 1440 nM
  TGI: 5.22 µM
CCRF-CEM leukemia
  GI50: 1520 nM
  TGI: 15.2 µM
COLO 205 colon
  GI50: 1020 nM
  TGI: 2910 nM
DU-145 prostate
  GI50: 1540 nM
  TGI: 5.34 µM
EKVX NSCLC
  GI50: 1190 nM
  TGI: 3.49 µM
HCC-2998 colon
  GI50: 1310 nM
  TGI: 4.24 µM
HCT-116 colon
  GI50: 711 nM
  TGI: 6.04 µM
HCT-15 colon
  GI50: 1470 nM
  TGI: 5.3 µM
HL-60(TB) leukemia
  GI50: 818 nM
  TGI: 2440 nM
HOP-62 NSCLC
  GI50: 1360 nM
  TGI: 5.08 µM
HOP-92 NSCLC
  GI50: 492 nM
  TGI: 3.13 µM
HS 578T breast
  GI50: 922 nM
  TGI: 3.26 µM
HT29 colon
  GI50: 963 nM
  TGI: 5.1 µM
IGROV1 ovarian
  GI50: 1300 nM
  TGI: 5.59 µM
K-562 leukemia
  GI50: 5 nM
  TGI: 21.6 µM
KM12 colon
  GI50: 8.63 nM
  TGI: 2410 nM
LOX IMVI melanoma
  GI50: 1070 nM
  TGI: 2980 nM
M14 melanoma
  GI50: 1020 nM
  TGI: 3.34 µM
MALME-3M melanoma
  GI50: 595 nM
  TGI: 1420 nM
MCF7 breast
  GI50: 707 nM
  TGI: 4.77 µM
MDA-MB-231 breast
  GI50: 798 nM
  TGI: 3.87 µM
MDA-MB-435
  GI50: 1130 nM
  TGI: 3.76 µM
MOLT-4 leukemia
  GI50: 1420 nM
  TGI: 5.34 µM
NCI-H226 lung
  GI50: 286 nM
  TGI: 2480 nM
NCI-H23 lung
  GI50: 892 nM
  TGI: 2320 nM
NCI-H460 lung
  GI50: 1270 nM
  TGI: 3.44 µM
NCI-H522 lung
  GI50: 990 nM
  TGI: 2720 nM
NCI/ADR-RES ovarian
  GI50: 1830 nM
  TGI: 8.1 µM
OVCAR-3 ovarian
  GI50: 1760 nM
  TGI: 5.5 µM
OVCAR-4 ovarian
  GI50: 732 nM
  TGI: 3.68 µM
OVCAR-5 ovarian
  GI50: 1270 nM
  TGI: 6.04 µM
OVCAR-8 ovarian
  GI50: 1660 nM
  TGI: 6.3 µM
PC-3 prostate
  GI50: 1440 nM
  TGI: 5.75 µM
RPMI-8226 leukemia
  GI50: 1110 nM
  TGI: 3.05 µM
RXF 393 renal
  GI50: 783 nM
  TGI: 1710 nM
SF-268 CNS
  GI50: 1190 nM
  TGI: 2810 nM
SF-295 CNS
  GI50: 1490 nM
  TGI: 5.42 µM
SF-539 CNS
  GI50: 558 nM
  TGI: 1330 nM
SK-MEL-2 melanoma
  GI50: 639 nM
  TGI: 1710 nM
SK-MEL-28 melanoma
  GI50: 1300 nM
  TGI: 4.63 µM
SK-MEL-5 melanoma
  GI50: 1060 nM
  TGI: 2420 nM
SK-OV-3 ovarian
  GI50: 1670 nM
  TGI: 5.21 µM
SN12C renal
  GI50: 1260 nM
  TGI: 5.2 µM
SNB-19 CNS
  GI50: 1800 nM
  TGI: 5.62 µM
SNB-75 CNS
  GI50: 914 nM
  TGI: 1880 nM
SR leukemia
  GI50: 1390 nM
  TGI: 17.6 µM
SW-620 colon
  GI50: 981 nM
  TGI: 4.34 µM
T-47D breast
  GI50: 2200 nM
  TGI: 11.9 µM
TK-10 renal
  GI50: 1880 nM
  TGI: 6.03 µM
U251 CNS
  GI50: 1480 nM
  TGI: 5.42 µM
UACC-257 melanoma
  GI50: 1400 nM
  TGI: 5.04 µM
UACC-62 melanoma
  GI50: 1330 nM
  TGI: 4.46 µM
UO-31 renal
  GI50: 1490 nM
  TGI: 3.78 µM
